According to paper PMC2193707 (The Journal of Experimental Medicine, 2002):

Experiments:
[1] = target: T1, mCD22 (cellular CD22 on mouse B cells) (Mus musculus, UniProt P35329); test: flow cytometry, inhibition of NeuGc2,6-PAA-bio probe staining; format: cell-based; details: sialidase-treated mouse B cells (B220+); preincubation on ice 10 min
T1 sequence (P35329 22-868): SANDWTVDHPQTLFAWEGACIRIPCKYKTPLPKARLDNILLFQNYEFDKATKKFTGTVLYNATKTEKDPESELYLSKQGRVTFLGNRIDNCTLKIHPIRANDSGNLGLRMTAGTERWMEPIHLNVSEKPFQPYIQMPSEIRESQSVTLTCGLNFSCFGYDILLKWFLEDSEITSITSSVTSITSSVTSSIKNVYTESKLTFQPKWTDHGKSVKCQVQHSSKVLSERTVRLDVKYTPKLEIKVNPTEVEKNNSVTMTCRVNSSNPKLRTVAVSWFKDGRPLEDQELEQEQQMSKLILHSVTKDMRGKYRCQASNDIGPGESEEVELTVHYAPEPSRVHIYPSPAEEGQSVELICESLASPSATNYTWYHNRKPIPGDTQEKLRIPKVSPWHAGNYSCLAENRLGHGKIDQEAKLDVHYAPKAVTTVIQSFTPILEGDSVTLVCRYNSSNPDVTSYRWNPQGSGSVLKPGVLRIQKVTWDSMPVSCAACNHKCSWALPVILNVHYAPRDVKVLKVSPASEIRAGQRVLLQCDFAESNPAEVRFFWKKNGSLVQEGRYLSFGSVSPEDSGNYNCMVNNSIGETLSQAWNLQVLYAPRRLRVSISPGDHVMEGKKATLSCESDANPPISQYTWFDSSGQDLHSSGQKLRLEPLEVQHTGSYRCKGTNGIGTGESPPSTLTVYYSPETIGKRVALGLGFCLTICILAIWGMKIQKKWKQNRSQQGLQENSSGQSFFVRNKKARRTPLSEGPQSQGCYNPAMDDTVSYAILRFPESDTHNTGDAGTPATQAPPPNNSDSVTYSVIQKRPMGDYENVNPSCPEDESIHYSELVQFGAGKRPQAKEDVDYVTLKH

[2] = target: T2, mCD22d1–3-Fc (Mus musculus, UniProt P35329); test: hapten inhibition of […]-Fc-chimera binding to fixed target cells
T2 sequence (P35329 22-347 limits assumed): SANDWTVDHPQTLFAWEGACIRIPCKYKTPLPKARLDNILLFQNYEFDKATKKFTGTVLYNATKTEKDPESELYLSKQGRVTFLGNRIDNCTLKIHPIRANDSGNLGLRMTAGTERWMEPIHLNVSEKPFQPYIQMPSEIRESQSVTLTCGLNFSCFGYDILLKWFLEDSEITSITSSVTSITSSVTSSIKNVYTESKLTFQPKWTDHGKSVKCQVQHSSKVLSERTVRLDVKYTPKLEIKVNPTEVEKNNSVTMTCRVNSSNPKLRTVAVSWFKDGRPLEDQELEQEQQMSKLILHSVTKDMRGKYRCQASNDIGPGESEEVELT

[3] = target: T3, hCD22 (cellular CD22 on Daudi cells) (Homo sapiens, UniProt P20273); test: flow cytometry, inhibition of NeuGc2,6-PAA-bio probe staining; format: cell-based; details: sialidase-treated Daudi cells; preincubation on ice 10 min
T3 sequence (P20273 20-847): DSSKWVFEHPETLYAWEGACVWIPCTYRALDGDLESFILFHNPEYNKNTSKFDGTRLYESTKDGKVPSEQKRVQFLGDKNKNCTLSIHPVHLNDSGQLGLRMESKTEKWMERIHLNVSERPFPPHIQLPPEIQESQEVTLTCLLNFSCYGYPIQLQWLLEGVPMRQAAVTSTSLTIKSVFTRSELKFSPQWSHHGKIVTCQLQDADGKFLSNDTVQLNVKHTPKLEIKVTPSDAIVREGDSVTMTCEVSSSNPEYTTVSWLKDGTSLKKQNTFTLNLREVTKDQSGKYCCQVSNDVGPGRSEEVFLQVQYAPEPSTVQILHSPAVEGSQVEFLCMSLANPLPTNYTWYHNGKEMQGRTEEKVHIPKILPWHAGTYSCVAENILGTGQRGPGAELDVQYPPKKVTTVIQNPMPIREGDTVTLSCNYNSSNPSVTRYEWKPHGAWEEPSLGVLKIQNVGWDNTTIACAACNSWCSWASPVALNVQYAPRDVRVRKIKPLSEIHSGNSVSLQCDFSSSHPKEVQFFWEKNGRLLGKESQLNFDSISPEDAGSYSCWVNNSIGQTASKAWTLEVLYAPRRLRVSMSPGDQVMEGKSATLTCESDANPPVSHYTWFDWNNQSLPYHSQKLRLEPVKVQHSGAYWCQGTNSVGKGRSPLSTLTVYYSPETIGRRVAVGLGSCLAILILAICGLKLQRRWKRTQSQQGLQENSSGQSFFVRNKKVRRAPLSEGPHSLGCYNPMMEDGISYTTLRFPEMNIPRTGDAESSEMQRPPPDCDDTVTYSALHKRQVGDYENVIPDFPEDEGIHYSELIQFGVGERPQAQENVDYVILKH

[4] = target: T4, hCD22d1–3-Fc (Homo sapiens, UniProt P20273); test: hapten inhibition of […]-Fc-chimera binding to fixed target cells
T4 sequence (P20273 20-330 limits assumed): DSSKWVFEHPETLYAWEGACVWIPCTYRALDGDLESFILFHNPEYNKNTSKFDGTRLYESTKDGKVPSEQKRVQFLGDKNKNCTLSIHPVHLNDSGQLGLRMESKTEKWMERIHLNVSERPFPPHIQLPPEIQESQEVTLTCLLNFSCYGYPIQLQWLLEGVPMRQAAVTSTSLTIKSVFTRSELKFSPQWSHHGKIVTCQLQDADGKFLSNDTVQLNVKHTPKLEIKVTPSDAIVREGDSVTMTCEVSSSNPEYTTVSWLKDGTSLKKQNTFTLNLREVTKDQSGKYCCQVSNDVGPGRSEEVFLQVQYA

[5] = target: mSnd1–3-Fc (Mus musculus, UniProt Q62230); test: as above
Sequence of mSnd1–3-Fc (Q62230 20-325 limits assumed): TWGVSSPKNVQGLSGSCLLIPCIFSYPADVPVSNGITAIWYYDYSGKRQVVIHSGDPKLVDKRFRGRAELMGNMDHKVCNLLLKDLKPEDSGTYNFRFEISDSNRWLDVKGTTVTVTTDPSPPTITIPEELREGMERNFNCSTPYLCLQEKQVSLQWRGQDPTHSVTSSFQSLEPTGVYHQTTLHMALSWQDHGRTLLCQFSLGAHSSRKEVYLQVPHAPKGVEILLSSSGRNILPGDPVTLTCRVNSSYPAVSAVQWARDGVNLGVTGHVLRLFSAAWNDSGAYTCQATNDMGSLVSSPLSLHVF

| IC50 [2] [µM] | IC50 [4] [µM] | IC50 [5] [µM] | Compound | flow cytometry, inhibition of NeuGc2,6-PAA-bio probe staining [1] | flow cytometry, inhibition of NeuGc2,6-PAA-bio probe staining [3] |
| --- | --- | --- | --- | --- | --- |
|  |  |  | CO[C@]1(C(=O)O)C[C@H](O)[C@@H](NC(C)=O)[C@H]([C@H](O)[C@H](O)CNC(=O)Cc2ccc(-c3ccccc3)cc2)O1 [BPAc-Neu5Ac, Methyl-a-9-N-(biphenyl-4-acetyl)-amino-9-deoxy-Neu5Ac] | performed on mouse B cells, BPAc-Neu5Ac was the more potent inhibitor |  |
| 1220 | 4 | 52 | CO[C@]1(C(=O)O)C[C@H](O)[C@@H](NC(C)=O)[C@H]([C@H](O)[C@H](O)CNC(=O)c2ccc(-c3ccccc3)cc2)O1 [BPC-Neu5Ac, Methyl-a-9-N-(biphenyl-4-carbonyl)-amino-9-deoxy-Neu5Ac] |  | Pretreatment with BPC-Neu5Ac was most potent in inhibiting the binding of the synthetic CD22 ligand |
